Assay [1] addresses ALK tyrosine kinase receptor (Homo sapiens, UniProt Q9UM73).
Description: Inhibition of recombinant ALK (unknown origin) using peptide substrate measured after 1 hr by LanthaScreen assay
For the next assay, the system named is KARPAS-299. The assay can be described thus: cells. Particulars: Homo sapiens, KARPAS-299, 72 h.

The structures appear in SMILES notation.

ALK tyrosine kinase receptor, sequence (Q9UM73 whole entry): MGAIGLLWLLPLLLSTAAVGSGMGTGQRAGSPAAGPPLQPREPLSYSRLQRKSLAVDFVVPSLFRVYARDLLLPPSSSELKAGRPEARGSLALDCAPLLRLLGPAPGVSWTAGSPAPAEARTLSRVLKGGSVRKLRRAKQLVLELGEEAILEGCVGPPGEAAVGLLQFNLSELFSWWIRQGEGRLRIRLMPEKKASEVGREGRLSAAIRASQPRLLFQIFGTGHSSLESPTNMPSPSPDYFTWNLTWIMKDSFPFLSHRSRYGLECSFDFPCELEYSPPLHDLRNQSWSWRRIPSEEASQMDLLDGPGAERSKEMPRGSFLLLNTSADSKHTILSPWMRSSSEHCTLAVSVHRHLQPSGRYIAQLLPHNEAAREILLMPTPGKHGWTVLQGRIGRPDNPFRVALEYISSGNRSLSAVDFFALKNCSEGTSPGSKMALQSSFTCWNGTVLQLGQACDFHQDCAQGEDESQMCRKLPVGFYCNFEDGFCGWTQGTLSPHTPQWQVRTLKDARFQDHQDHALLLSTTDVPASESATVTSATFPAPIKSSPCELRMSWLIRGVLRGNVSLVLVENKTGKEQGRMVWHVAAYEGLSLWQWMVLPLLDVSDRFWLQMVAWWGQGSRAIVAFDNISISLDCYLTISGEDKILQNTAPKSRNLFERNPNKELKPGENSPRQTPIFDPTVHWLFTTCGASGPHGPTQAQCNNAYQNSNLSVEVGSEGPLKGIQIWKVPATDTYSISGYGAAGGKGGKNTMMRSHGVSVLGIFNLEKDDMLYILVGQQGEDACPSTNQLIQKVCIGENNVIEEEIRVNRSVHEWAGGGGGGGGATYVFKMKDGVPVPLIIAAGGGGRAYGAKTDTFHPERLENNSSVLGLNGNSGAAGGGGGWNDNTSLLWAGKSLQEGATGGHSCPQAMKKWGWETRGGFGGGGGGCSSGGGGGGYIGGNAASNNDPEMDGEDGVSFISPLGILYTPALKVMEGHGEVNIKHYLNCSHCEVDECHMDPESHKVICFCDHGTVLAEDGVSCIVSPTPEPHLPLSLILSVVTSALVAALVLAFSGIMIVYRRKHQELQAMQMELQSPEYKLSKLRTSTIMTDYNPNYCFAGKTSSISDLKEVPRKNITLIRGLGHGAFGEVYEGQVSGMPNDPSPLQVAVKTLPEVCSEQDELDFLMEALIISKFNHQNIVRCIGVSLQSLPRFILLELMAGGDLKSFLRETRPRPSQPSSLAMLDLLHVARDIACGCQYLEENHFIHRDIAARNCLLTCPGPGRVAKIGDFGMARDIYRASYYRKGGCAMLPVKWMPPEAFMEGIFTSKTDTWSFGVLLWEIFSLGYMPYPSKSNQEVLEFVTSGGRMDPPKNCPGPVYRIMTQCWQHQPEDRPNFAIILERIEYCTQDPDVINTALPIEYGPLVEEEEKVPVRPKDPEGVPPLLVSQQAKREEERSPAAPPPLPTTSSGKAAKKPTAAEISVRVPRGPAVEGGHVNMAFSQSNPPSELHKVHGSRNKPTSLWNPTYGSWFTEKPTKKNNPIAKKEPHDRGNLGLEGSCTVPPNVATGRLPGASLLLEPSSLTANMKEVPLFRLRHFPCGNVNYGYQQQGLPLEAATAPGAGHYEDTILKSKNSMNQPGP
Description for KARPAS-299: Antiproliferative activity against human KARPAS299 cells after 3 days by MTT assay

What is called IC50 is the midpoint of a concentration-inhibition curve. Low values mean greater potency, high ones weaker potency. Molecule `Oc1ccc(-c2ccc3c(-c4ccc(N5CCCCC5)cc4)n[nH]c3n2)cc1` showed an IC50 in assay [1] of 339 nM.
On the same count and under the same terms, the result for `OCC1CCCCN1Cc1ccc(-c2n[nH]c3nc(-c4ccc(O)cc4)ccc23)o1` (stereo not drawn) reads 568 nM; that for `Oc1ccc(-c2ccc3c(-c4ccc(N5CCOCC5)cc4)n[nH]c3n2)cc1`, 425 nM.
For `Oc1ccc(-c2ccc3c(-c4cnn(C5CCNCC5)c4)n[nH]c3n2)cc1`, the IC50 in the assay on KARPAS-299 was 340 nM; in assay [1], 13.8 nM.
`Oc1ccc(-c2ccc3c(-c4ccc(CN5CCCCC5)o4)n[nH]c3n2)cc1` displayed an IC50 in assay [1] of 394 nM.
Regarding `CC(C)N1CCN(c2ccc(-c3n[nH]c4nc(-c5ccc(Cl)cc5)ccc34)cc2)CC1`, the IC50 in the assay with KARPAS-299 was above 10000 nM; in assay [1], above 2000 nM.
`CC(C)N1CCN(c2ccc(-c3n[nH]c4nc(-c5ccc(O)cc5)ccc34)cc2)CC1` showed an IC50 in assay [1] of 47.4 nM.
As to `CC(C)N1CCN(c2ccc(-c3n[nH]c4nc(-c5ccc(C(C)(C)O)cc5)ccc34)cc2)CC1`, the figures for the IC50 (in the assay with KARPAS-299; in assay [1]) were 105000 nM and above 2000 nM, respectively.
For `CC(C)N1CCN(c2ccc(-c3n[nH]c4nc(-c5ccc(C#N)cc5)ccc34)cc2)CC1`, the IC50 (in the assay on KARPAS-299; in assay [1]) was above 2000 nM each time.
As for `CC(C)N1CCN(c2ccc(-c3n[nH]c4nc(-c5cc(F)c(O)c(F)c5)ccc34)cc2)CC1`, the IC50 in the assay on KARPAS-299 amounted to 149 nM; in assay [1], 649 nM.
In assay [1], `Cc1ccc(-c2n[nH]c3nc(-c4ccc(O)cc4)ccc23)o1` returned an IC50 of 53.9 nM.
Same read-out and setting: the result for `Oc1ccc(-c2ccc3c(-c4ccc(CN5CCOCC5)o4)n[nH]c3n2)cc1` reads 94.1 nM; that for `Oc1ccc(-c2ccc3c(-c4ccc(Cl)cc4)n[nH]c3n2)cc1`, above 2000 nM.
Still for that read-out and setting: the result for `Oc1ccc(-c2ccc3c(-c4ccc(CN5CCCC5)o4)n[nH]c3n2)cc1` reads 253 nM.
Still for that read-out and setting: the result for `Oc1ccc(-c2ccc3c(-c4ccc(F)cc4)n[nH]c3n2)cc1` reads 336 nM; that for `CN(CCO)Cc1ccc(-c2n[nH]c3nc(-c4ccc(O)cc4)ccc23)o1`, 83.2 nM; that for `CN1CCN(Cc2ccc(-c3n[nH]c4nc(-c5ccc(O)cc5)ccc34)o2)CC1`, 194 nM.
Turning to `Oc1ccc(-c2ccc3c(-c4ccccc4)n[nH]c3n2)cc1`, the figures for the IC50 (in the assay on KARPAS-299; in assay [1]) were 24.2 nM and 251 nM, respectively.
On to `COc1ccc(-c2n[nH]c3nc(-c4ccc(O)cc4)ccc23)cc1`, for which the IC50 in assay [1] is 239 nM.
The same measure, in the same setting: for `Oc1ccc(-c2ccc3c(-c4ccc(O)cc4)n[nH]c3n2)cc1` the value was 130 nM; for `CC(C)N1CCN(Cc2ccc(-c3n[nH]c4nc(-c5ccc(O)cc5)ccc34)o2)CC1`, 103 nM.
With `COc1cc(N2CCN(C(C)C)CC2)ccc1-c1n[nH]c2nc(-c3ccc(O)c(F)c3)ccc12`, the IC50 in the assay with KARPAS-299 stood at 263 nM; in assay [1], 53.1 nM.
The corresponding values for `CC(C)N1CCN(c2ccc(-c3n[nH]c4nc(-c5ccc(O)c(F)c5)ccc34)cc2)CC1` are above 2000 nM and 1.58 nM.
On to `CC(C)N1CCN(c2ccc(-c3n[nH]c4nc(-c5ccc(F)cc5)ccc34)cc2)CC1`, for which, in assay [1], the half-inhibitory concentration (IC50) was above 2000 nM.
Turning to `COc1cc(N2CCN(C(C)C)CC2)ccc1-c1n[nH]c2nc(-c3ccc(O)cc3)ccc12`, the IC50 in the assay on KARPAS-299 was 2850 nM; in assay [1], 27 nM.
The matching figures for `Oc1ccc(-c2ccc3c(-c4cnn(C5CCNCC5)c4)n[nH]c3n2)cc1F`: 2100 nM and 39.6 nM.
The matching figures for `CC(C)N1CCN(c2ccc(-c3n[nH]c4nc(-c5ccc(N)cc5)ccc34)cc2)CC1`: above 10000 nM and 218 nM.

The values are drawn from ChEMBL document CHEMBL4368941, “Discovery of 3,6-diaryl-1H-pyrazolo[3,4-b]pyridines as potent anaplastic lymphoma kinase (ALK) inhibitors” (Bioorg Med Chem Lett, 2019).
